Read-outs that look alike come from different tables or passages of the source.
Assays:
[1] = molecular target: full-length human PRMT6 (Flag- and His-tagged) (Homo sapiens, UniProt Q96LA8); assay: PRMT6 Biochemical Assay (3H-SAM Flashplate, peptide substrate); conditions: read-out: Biochemical IC50 PRMT6
Text: General Materials. S-adenosylmethionine (SAM), S-adenosylhomocysteine (SAH), bicine, Tween20, dimethylsulfoxide (DMSO), bovine skin gelatin (BSG), sodium butyrate and Tris(2-carboxyethyl)phosphine hydrochloride solution (TCEP) were purchased from Sigma-Aldrich at the highest level of purity possible. ^3H-SAM was purchase from American Radiolabeled Chemicals with a specific activity of 80 Ci/mmol. 384-well streptavidin Flashplates were purchased from PerkinElmer.
Substrates. Peptide representative of human histone H4 residues 36-50 was synthesized with an N-terminal linker-affinity tag motif and a C-terminal amide cap by 21st Century Biochemicals. The peptide was purified by high-performance liquid chromatography (HPLC) to greater than 95% purity and confirmed by liquid chromatography mass spectrometry (LC-MS). The sequence was Biot-Ahx-[…]-amide and contained a monomethylated lysine at position 44 (SEQ ID NO.:5).
Molecular Biology: Full-length human PRMT6 (NM_018137.2) transcript clone was amplified from an HEK 293 cDNA library, incorporating a flanking 5′ sequence encoding a FLAG tag ([…]) (SEQ ID NO.:6) fused directly to Ser 2 of PRMT6 and a 3′ sequence encoding a hexa His sequence (HHHHHH) (SEQ ID NO.:17) fused directly to Asp 375. The amplified gene was subcloned into pFastBacMam (Viva Biotech).
Protein Expression. Recombinant baculovirus were generated according to Bac-to-Bac kit instructions (Life Technologies). […] Infections were carried out at 37° C. for 48 hours, harvested by centrifugation, and stored at −80° C. for purification.
Protein Purification. […] Column was washed with 20 mM imidazole in the same buffer and Flag-PRMT6-His was eluted with 150 mM imidazole. Pooled fractions were dialysed against buffer N^1-A and further purified by anti-flag M2 affinity chromatography. Flag-PRMT6-His was eluted with 200 ug/ml FLAG peptide in the same buffer. Pooled fractions were dialysed in 20 mM Tris, 150 mM NaCl, 10% glycerol and 5 mM β-mercaptoethanol, pH 7.8. The purity of recovered protein was 95%.
General Procedure for PRMT6 Enzyme Assays on Peptide Substrates. The assays were all performed in a buffer consisting of 20 mM Bicine (pH=7.6), 1 mM TCEP, 0.005% BSG, and 0.002% Tween 20, prepared on the day of use. Compounds in 100% DMSO (1 ul) were spotted into a polypropylene 384-well V-bottom plates (Greiner) using a Platemate Plus outfitted with a 384-channel head (Thermo Scientific). DMSO (1 ul) was added to Columns 11, 12, 23, 24, rows A-H for the maximum signal control and 1 ul of SAH, a known product and inhibitor of PRMT6, was added to columns 11, 12, 23, 24, rows I-P for the minimum signal control. A cocktail (40 ul) containing the PRMT6 enzyme was added by Multidrop Combi (Thermo-Fisher). The compounds were allowed to incubate with PRMT6 for 30 min at room temperature, then a cocktail (10 ul) containing SAM and peptide was added to initiate the reaction (final volume=51 ul). The final concentrations of the components were as follows: PRMT6 was 1 nM, ^3H-SAM was 200 nM, non-radiolabeled SAM was 250 nM, peptide was 75 nM, SAH in the minimum signal control wells was 1 mM, and the DMSO concentration was 2%. The assays were stopped by the addition of non-radiolabeled SAM (10 ul) to a final concentration of 400 uM, which dilutes the ^3H-SAM to a level where its incorporation into the peptide substrate is no longer detectable. 50 ul of the reaction in the 384-well polypropylene plate was then transferred to a 384-well Flashplate and the biotinylated peptides were allowed to bind to the streptavidin surface for at least 1 hour before being washed once with 0.1% Tween20 in a Biotek ELx405 plate washer. The plates were then read in a PerkinElmer TopCount plate reader to measure the quantity of ^3H-labeled peptide bound to the Flashplate surface, measured as disintegrations per minute (dpm) or alternatively, referred to as counts per minute (cpm). […]

[2] = tested on: mono-methyl arginine in RKO cells; assay: RKO Methylation Assay, In Cell Western (ICW) for detection of mono-methyl arginine and DNA content; assay type: cell-based; conditions: Homo sapiens, RKO, 72 h, RKO cells, read-out: In Cell Western EC30
Text: RKO adherent cells were purchased from ATCC (American Type Culture Collection), Manassas, Va., USA. DMEM/Glutamax medium, penicillin-streptomycin, heat inactivated fetal bovine serum, 0.05% trypsin and D-PBS were purchased from Life Technologies, Grand Island, N.Y., USA. Odyssey blocking buffer, 800 CW goat anti-rabbit IgG (H+L) antibody, and Licor Odyssey infrared scanner were purchased from Licor Biosciences, Lincoln, Nebr., USA. Mono-methyl arginine antibody was purchased from Cell Signaling Technology, Danvers, Mass., USA. Methanol was purchased from VWR, Franklin, Mass., USA. 10% Tween 20 was purchased from KPL, Inc., Gaithersburg, Md., USA. DRAQ5 was purchased from Biostatus Limited, Leicestershire, UK.
RKO adherent cells were maintained in growth medium (DMEM/Glutamax medium supplemented with 10% v/v heat inactivated fetal bovine serum and 100 units/mL penicillin-streptomycin) and cultured at 37° C. under 5% CO2.
Cell treatment, In Cell Western (ICW) for detection of mono-methyl arginine and DNA content. […] Compound (100 nL) from a 96-well source plate was added directly to 384 well cell plate. Plates were incubated at 37° C., 5% CO2 for 72 hours. After three days of incubation, plates were brought to room temperature outside of the incubator for ten minutes and blotted on paper towels to remove cell media. 50 μL of ice cold 100% methanol was added directly to each well and incubated for 30 min at room temperature. After 30 min, plates were transferred to a Biotek EL406 plate washer and washed 2 times with 100 μL per well of wash buffer (1×PBS). Next 60 μL per well of Odyssey blocking buffer (Odyssey Buffer with 0.1% Tween 20 (v/v)) were added to each plate and incubated 1 hour at room temperature. Blocking buffer was removed and 20 μL per well of primary antibody was added (mono-methyl arginine diluted 1:200 in Odyssey buffer with 0.1% Tween 20 (v/v)) and plates were incubated overnight (16 hours) at 4° C. Plates were washed 5 times with 100 μL per well of wash buffer. […] The plates were washed 5 times with 100 μL per well wash buffer then 2 times with 100 μL per well of water. Plates were allowed to dry at room temperature then imaged on the Licor Odyssey machine which measures integrated intensity at 700 nm and 800 nm wavelengths. Both 700 and 800 channels were scanned.
Calculations: First, the ratio for each well was determined by:
Each plate included fourteen control wells of DMSO only treatment (minimum activation) as well as fourteen control wells for maximum activation treated with 20 μM of a reference compound. The average of the ratio values for each control type was calculated and used to determine the percent activation for each test well in the plate. Reference compound was serially diluted three-fold in DMSO for a total of nine test concentrations, beginning at 20 μM. Percent activation was determined and EC30 curves were generated using triplicate wells per concentration of compound.

[3] = single experiment or average of multiple experiments
[4] = 72 hours compound incubation, mono-methyl arginine signal normalised to DNA content (DRAQ5), percent activation vs 20 μM reference compound
[5] = 72 hours incubation, mono-methyl arginine signal normalised to DNA content, single experiment or average of multiple experiments

Sequence of full-length human PRMT6 (Flag- and His-tagged) (Q96LA8 with tags, fused parts or gaps): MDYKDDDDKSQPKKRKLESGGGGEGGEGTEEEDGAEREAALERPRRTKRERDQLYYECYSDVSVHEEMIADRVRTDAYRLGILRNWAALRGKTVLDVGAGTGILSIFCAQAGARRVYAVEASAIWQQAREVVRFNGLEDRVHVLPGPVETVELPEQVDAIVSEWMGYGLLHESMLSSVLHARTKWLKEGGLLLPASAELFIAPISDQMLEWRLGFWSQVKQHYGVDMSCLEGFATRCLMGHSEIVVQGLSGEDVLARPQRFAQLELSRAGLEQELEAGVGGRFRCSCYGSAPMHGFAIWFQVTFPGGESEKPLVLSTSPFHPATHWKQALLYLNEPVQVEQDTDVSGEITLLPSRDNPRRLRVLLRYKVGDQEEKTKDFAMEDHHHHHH

Compound | IC50 [1] [nM] | IC50 [1, 3] [nM] | EC30 [2, 4] [nM] | EC30 [2, 5] [nM]
CNCCN(C)Cc1c[nH]nc1[C@H]1CC[C@@]2(CCOC2)CC1 [Compound 141] | < 100 | 23 | < 3000 | 132
CNCCN(C)Cc1c[nH]nc1[C@H]1CC[C@@H](N(CC2CCOCC2)C(=O)CC(C)C)CC1 [Compound 107] | 101 to 1000 | 130 | – | –
CNCCN(C)Cc1c[nH]nc1C1CCC(N(CC(C)C)C(=O)CC2CCOCC2)CC1 (stereo not shown) [Compound 114] | < 100 | 92.6 | – | –
CNCCN(C)Cc1c[nH]nc1C1CCC(OCC(C)C)CC1 (stereo not shown) [Compound 153] | < 100 | 28.4 | < 3000 | 129
CCOC1CC(OCC)CC2(CCC(c3n[nH]cc3CN(C)CCNC)CC2)C1 (stereo not shown) [Compound 159] | < 100 | 53.8 | < 3000 | 63
CNCCN(C)Cc1c[nH]nc1[C@H]1CC[C@H](OC2CCCCC2)CC1 [Compound 139] | < 100 | 22.6 | < 3000 | 627
CNCCN(C)Cc1c[nH]nc1[C@H]1CC[C@@H](OC2CCCCC2)CC1 [Compound 140] | < 100 | 24 | < 3000 | 164
CNCCN(C)Cc1c[nH]nc1[C@H]1CC[C@H](COC)CC1 [Compound 167] | < 100 | 31.5 | < 3000 | 18
CNCCN(C)Cc1c[nH]nc1[C@H]1CC[C@H](OCCOc2ccccc2)CC1 [Compound 187] | 101 to 1000 | 261 | 3010 to 12000 | 3160
CNCCN(C)Cc1c[nH]nc1[C@H]1CC[C@@H](COC)CC1 [Compound 166] | < 100 | 48.6 | < 3000 | 83
CNCCN(C)Cc1c[nH]nc1[C@H]1CC[C@]2(CCC(C)(C)O2)CC1 [Compound 104] | < 100 | 40.5 | < 3000 | 11.7
CNCCN(C)Cc1c[nH]nc1[C@H]1CC[C@@]2(CCN(CC(C)C)C2=O)CC1 [Compound 129] | < 100 | 29.7 | < 3000 | 4.5
CNCCN(C)Cc1c[nH]nc1C1CCC2(CCOCC2)CC1 [Compound 178] | < 100 | 15.7 | < 3000 | 76
CNCCN(C)Cc1c[nH]nc1C1CCC2(CC1)CCC(F)(F)CC2 [Compound 130] | < 100 | 4.2 | – | –
CNCCN(C)Cc1c[nH]nc1[C@H]1CC[C@@]2(CCN(Cc3ccccc3)C2=O)CC1 [Compound 127] | < 100 | 22.3 | < 3000 | 29.2
CNCCN(C)Cc1c[nH]nc1[C@H]1CC[C@@H](C(C)C)CC1 [Compound 181] | < 100 | 27.9 | < 3000 | 107
CC[C@H]1CC[C@H](c2n[nH]cc2CN(C)CCNC)CC1 [Compound 148] | < 100 | 8.1 | < 3000 | 16
CNCCN(C)Cc1c[nH]nc1C1CCCC(COCCOC)C1 (stereo not shown) [Compound 112] | < 100 | 57.4 | – | –
CNCCN(C)Cc1c[nH]nc1[C@H]1CC[C@@H](O)C2(CCCCC2)C1 (single isomer, unassigned) [Compound 183] | < 100 | 87.7 | < 3000 | 319
CNCCN(C)Cc1c[nH]nc1[C@H]1CC[C@H](C(C)C)CC1 [Compound 180] | < 100 | 14.7 | < 3000 | 19
CNCCN(C)Cc1c[nH]nc1C1CCC2(CC1)CCN(CC(C)C)C2=O (stereo not shown) [Compound 164] | < 100 | 70.8 | < 3000 | 78
CNCCN(C)Cc1c[nH]nc1C1CCC2(CC1)CC(=O)N(C)C2 (stereo not shown) [Compound 157] | < 100 | 47.9 | < 3000 | 2490
CNCCN(C)Cc1c[nH]nc1C1CCC2(CC1)CN(C)C(=O)N2C (stereo not shown) [Compound 172] | < 100 | 45.8 | 3010 to 12000 | 4460
CNCCN(C)Cc1c[nH]nc1C1CCC(=O)N(CCC(C)C)C1 (stereo not shown) [Compound 117] | < 100 | 96.2 | – | –
CN(CCN)Cc1c[nH]nc1CCc1ccccc1 [Compound 9] | < 100 | 10 | 3010 to 12000 | 5610
CNCCN(C)Cc1c[nH]nc1[C@H]1CC[C@H](OCCOc2ccc(OC)cc2)CC1 [Compound 186] | 101 to 1000 | 107 | – | –
CNCCN(C)Cc1c[nH]nc1C1CCC2(CC1)OC(C)CC(C)O2 (stereo not shown) [Compound 121] | < 100 | 97.7 | – | –
CNCCN(C)Cc1c[nH]nc1C1CC(COC)CC(COC)C1 (stereo not shown) [Compound 138] | 1010 to 3000 | 1210 | – | –
CNCCN(C)Cc1c[nH]nc1C1CCC2(CC1)NC(=O)N(C)C2=O (stereo not shown) [Compound 170] | < 100 | 57.8 | – | –
CCCOC1CC(OCCC)CC(c2n[nH]cc2CN(C)CCNC)C1 (stereo not shown) [Compound 131] | > 10000 | > 10000 | – | –
